Values of other authors, collected in patent US20160120807A1, “CELL-SURFACE DECORATION WITH ACTIVE AGENTS” (University of Louisville Research Foundation, Inc., priority 2005, published 2016).

Columns and labels:
NPY Y1 receptor [1] = target: T1, NPY Y1 receptor (Homo sapiens, UniProt P25929)
T1 construct: host or cells: smooth muscle cells; vessel after angioplasty
T1 sequence (P25929 1-384): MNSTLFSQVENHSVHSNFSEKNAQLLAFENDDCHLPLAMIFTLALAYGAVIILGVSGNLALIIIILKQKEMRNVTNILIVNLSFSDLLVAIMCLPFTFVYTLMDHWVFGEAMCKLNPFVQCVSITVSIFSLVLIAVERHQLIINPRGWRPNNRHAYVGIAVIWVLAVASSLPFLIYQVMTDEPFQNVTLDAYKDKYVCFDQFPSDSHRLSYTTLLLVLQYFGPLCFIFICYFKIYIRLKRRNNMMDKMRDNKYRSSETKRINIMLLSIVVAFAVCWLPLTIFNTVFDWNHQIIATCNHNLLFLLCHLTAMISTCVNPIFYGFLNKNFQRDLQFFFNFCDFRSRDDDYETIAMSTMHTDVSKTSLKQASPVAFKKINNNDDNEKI

NPY Y1 receptor [2] = target: T1, NPY Y1 receptor; remark: listed apart in the source

Q: For `N=C(N)NCCC[C@@H](NC(=O)C(c1ccccc1)c1ccccc1)C(=O)NCc1ccc(O)cc1` [BIBP3226, (R)—N2-(diphenylacetyl)-N-[(4-hydroxy-phenyl)methyl]-D-arginine-amide], which “neointimal hyperplasia after angioplasty” value (NPY Y1 receptor [1]) is on record?
A: reduces neointimal hyperplasia

Q: And the “mitogen-activated protein kinase (MAPK) activity in smooth muscle cells” value (NPY Y1 receptor [2])?
A: reduces mitogen-activated protein kinase (MAPK) activity
